Experiment: solvent given as SMILES
[1] = in CCCCCCCCC=CCCCCCCCC(=O)OCC(COC(=O)CCCCCCCC=CCCCCCCCC)OC(=O)CCCCCCCC=CCCCCCCCC

SMILES: CC(C)CCOC=O
- solvation free energy, 298 K (in O): -2.13 kcal/mol

SMILES: Oc1cccc(Cl)c1
- solvation free energy, 298 K (in CCCCCC): -6.52 kcal/mol
- solvation free energy, 298 K (in CCCCCCC): -6.51 kcal/mol
- solvation free energy, 298 K (in CCCCCCCC): -6.48 kcal/mol
- solvation free energy, 298 K (in CCCCCCCCCC): -6.48 kcal/mol
- solvation free energy, 298 K (in Cc1ccc(C)cc1): -7.97 kcal/mol
- solvation free energy, 298 K (in Cc1cccc(C)c1): -8.05 kcal/mol
- solvation free energy, 298 K (in Cc1ccccc1C): -8.07 kcal/mol
- solvation free energy, 298 K (in O): -6.62 kcal/mol

SMILES: CCN(CC)N=O
- solvation free energy, 298 K (in CC(C)CC(C)(C)C): -5.28 kcal/mol
- solvation free energy, 298 K (in O): -5.46 kcal/mol

SMILES: Cc1cccc(C)c1O
- solvation free energy, 298 K (in CC(C)CC(C)(C)C): -6.55 kcal/mol
- solvation free energy, 298 K (in O): -5.26 kcal/mol

SMILES: CC1=C(C)C2CCC1C2
- solvation free energy, 298 K (in O): 0.53 kcal/mol

SMILES: CCC(=O)CC
- solvation free energy, 298 K (in CC(C)CCCC(C)CCCC(C)CCCCC(C)CCCC(C)CCCC(C)C): -3.73 kcal/mol
- solvation free energy, 298 K (in CCCCCCC): -4.04 kcal/mol
- solvation free energy, 298 K [1]: -4.31 kcal/mol
- solvation free energy, 298 K (in CCCCCCCCCCCCCCCC): -3.73 kcal/mol
- solvation free energy, 298 K (in CCCCCCCCO): -4.34 kcal/mol
- solvation free energy, 298 K (in CN1CCCC1=O): -4.76 kcal/mol
- solvation free energy, 298 K (in CO): -4.96 kcal/mol
- solvation free energy, 298 K (in O): -3.33 kcal/mol
- solvation free energy, 298 K (in O=CN1CCOCC1): -4.45 kcal/mol
- solvation free energy, 298 K (in [2H]O[2H]): -3.27 kcal/mol

SMILES: OCCOCCOCCO
- solvation free energy, 298 K (in CCCCCCC): -7.04 kcal/mol

SMILES: CCCCOC(=O)c1ccccc1O
- solvation free energy, 298 K (in O): -3.51 kcal/mol

SMILES: Clc1ccc(C(c2ccc(Cl)cc2)C(Cl)Cl)cc1
- solvation free energy, 298 K (in CCCCCCCCO): -13.7 kcal/mol
- solvation free energy, 298 K (in O): -4.88 kcal/mol

SMILES: COc1cc(Cc2cnc(N)nc2N)cc(OC)c1OC
- solvation free energy, 298 K (in C1CCOC1): -19.9 kcal/mol
- solvation free energy, 298 K (in CC(C)O): -19.2 kcal/mol
- solvation free energy, 298 K (in CCC(C)O): -19.4 kcal/mol
- solvation free energy, 298 K (in CCCCO): -19.5 kcal/mol
- solvation free energy, 298 K (in CCCO): -19.8 kcal/mol
- solvation free energy, 298 K (in CCO): -19.8 kcal/mol
- solvation free energy, 298 K (in CO): -20.6 kcal/mol

SMILES: CCCCN(CCCC)N=O
- solvation free energy, 298 K (in CC(C)CC(C)(C)C): -7.84 kcal/mol
- solvation free energy, 298 K (in O): -4.91 kcal/mol

SMILES: c1cc2c3c(cccc3c1)CC2
- solvation free energy, 298 K (in C1CCOC1): -9.86 kcal/mol
- solvation free energy, 298 K (in C1COCCO1): -9.66 kcal/mol
- solvation free energy, 298 K (in CC(C)(C)O): -8.39 kcal/mol
- solvation free energy, 298 K (in CC(C)CC(C)(C)C): -8.67 kcal/mol
- solvation free energy, 298 K (in CC(C)CC(C)O): -8.46 kcal/mol
- solvation free energy, 298 K (in CC(C)CCCC(C)CCO): -8.69 kcal/mol
- solvation free energy, 298 K (in CC(C)CCO): -8.43 kcal/mol
- solvation free energy, 298 K (in CC(C)CO): -8.4 kcal/mol
- solvation free energy, 298 K (in CC(C)O): -8.38 kcal/mol
- solvation free energy, 298 K (in CC(C)OC(C)C): -9.11 kcal/mol
- solvation free energy, 298 K (in CCC(C)(C)O): -8.61 kcal/mol
- solvation free energy, 298 K (in CCC(C)O): -8.46 kcal/mol
- solvation free energy, 298 K (in CCCC(C)CO): -8.55 kcal/mol
- solvation free energy, 298 K (in CCCC(C)O): -8.52 kcal/mol
- solvation free energy, 298 K (in CCCCC(CC)CO): -8.66 kcal/mol
- solvation free energy, 298 K (in CCCCCC): -8.86 kcal/mol
- solvation free energy, 298 K (in CCCCCCC): -8.89 kcal/mol
- solvation free energy, 298 K (in CCCCCCCC): -8.9 kcal/mol
- solvation free energy, 298 K [1]: -9.22 kcal/mol
- solvation free energy, 298 K (in CCCCCCCCCC): -8.88 kcal/mol
- solvation free energy, 298 K (in CCCCCCCCCCO): -8.8 kcal/mol
- solvation free energy, 298 K (in CCCCCCCCO): -8.61 kcal/mol
- solvation free energy, 298 K (in CCCCCCCO): -8.75 kcal/mol
- solvation free energy, 298 K (in CCCCCCO): -8.72 kcal/mol
- solvation free energy, 298 K (in CCCCCO): -8.68 kcal/mol
- solvation free energy, 298 K (in CCCCO): -8.6 kcal/mol
- solvation free energy, 298 K (in CCCCOC(C)=O): -9.43 kcal/mol
- solvation free energy, 298 K (in CCCCOCCCC): -9.18 kcal/mol
- solvation free energy, 298 K (in CCCO): -8.53 kcal/mol
- solvation free energy, 298 K (in CCO): -8.4 kcal/mol
- solvation free energy, 298 K (in CCOC(C)=O): -9.44 kcal/mol
- solvation free energy, 298 K (in CCOCC): -9.37 kcal/mol
- solvation free energy, 298 K (in CNC=O): -8.5 kcal/mol
- solvation free energy, 298 K (in CO): -8.21 kcal/mol
- solvation free energy, 298 K (in COC(C)(C)C): -9.25 kcal/mol
- solvation free energy, 298 K (in COC(C)=O): -9.32 kcal/mol
- solvation free energy, 298 K (in Cc1ccc(C)cc1): -9.57 kcal/mol
- solvation free energy, 298 K (in Cc1ccccc1C): -9.78 kcal/mol
- solvation free energy, 298 K (in ClC(Cl)(Cl)Cl): -9.63 kcal/mol
- solvation free energy, 298 K (in ClC(Cl)Cl): -9.84 kcal/mol
- solvation free energy, 298 K (in ClCCCl): -9.78 kcal/mol
- solvation free energy, 298 K (in O): -3.18 kcal/mol
